Data as given in patent US8148391B2 (Cephalon, Inc., priority 2006, dated 2012).
Like-named read-outs stand apart in the source and are kept apart here. Each block holds one compound with its values, some of them ahead of it.

Columns and labels:
[1] = biological target: T1, baculovirus-expressed ALK (Homo sapiens, UniProt Q9UM73); experiment: ALK Kinase Assay (ELISA-type, time-resolved fluorescence); assay type: biochemical
T1 construct: host or cells: baculovirus expression system
In short: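 Plates coated with phospholipase C-γ substrate (10 μg/mL in TBS); reaction started with 30 ng/ml ALK and run 15 min at 37° C. Phosphorylated substrate detected with Eu-N1-labeled PT66 antibody. IC50 from sigmoidal variable-slope fit of percent inhibition vs log concentration.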

[2] = biological target: T2, c-Met (cytoplasmic domain) (Homo sapiens, UniProt P08581); experiment: c-Met Kinase Assay (same methods as for ALK, with modifications); assay type: biochemical
T2 construct: 10 ng/mL c-Met (cytoplasmic domain, Invitrogen Corporation #PV3143); purchased Invitrogen Corporation PV3143
In short: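 Plates were coated with phospholipase C-γ substrate (10 μg/mL) in TBS, and the reaction was started with 10 ng/mL c-Met cytoplasmic domain and run 15 min at 37 °C. Phosphoproduct was detected with Eu-N1-labelled PT66 antibody. IC50 came from a variable-slope sigmoidal fit of percent inhibition vs log concentration.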

[3] = ALK kinase inhibition, 1 μM ATP (Km level), read-out: ALK Activity
[4] = c-Met kinase inhibition, 1 μM ATP (Km level), read-out: cMet Activity
[5] = 1 μM ATP (Km level), read-out: ALK Activity (ALK Kinase Inhibition, IC50)
[6] = 1 μM ATP (Km level), read-out: cMet Activity (c-Met Kinase Inhibition, IC50)
[7] = ALK kinase inhibition, 1 μM ATP, read-out: ALK Activity
[8] = c-Met kinase inhibition, 1 μM ATP, read-out: cMet Activity
[9] = 1 μM ATP (Km level), 30 ng/ml ALK, 37° C., 15 minutes, read-out: ALK Activity (ALK kinase inhibition, IC50 class)
[10] = 1 μM ATP (Km level), 10 ng/mL c-Met, read-out: cMet Activity (c-Met kinase inhibition, IC50 class)

T1 sequence (Q9UM73 19-1620): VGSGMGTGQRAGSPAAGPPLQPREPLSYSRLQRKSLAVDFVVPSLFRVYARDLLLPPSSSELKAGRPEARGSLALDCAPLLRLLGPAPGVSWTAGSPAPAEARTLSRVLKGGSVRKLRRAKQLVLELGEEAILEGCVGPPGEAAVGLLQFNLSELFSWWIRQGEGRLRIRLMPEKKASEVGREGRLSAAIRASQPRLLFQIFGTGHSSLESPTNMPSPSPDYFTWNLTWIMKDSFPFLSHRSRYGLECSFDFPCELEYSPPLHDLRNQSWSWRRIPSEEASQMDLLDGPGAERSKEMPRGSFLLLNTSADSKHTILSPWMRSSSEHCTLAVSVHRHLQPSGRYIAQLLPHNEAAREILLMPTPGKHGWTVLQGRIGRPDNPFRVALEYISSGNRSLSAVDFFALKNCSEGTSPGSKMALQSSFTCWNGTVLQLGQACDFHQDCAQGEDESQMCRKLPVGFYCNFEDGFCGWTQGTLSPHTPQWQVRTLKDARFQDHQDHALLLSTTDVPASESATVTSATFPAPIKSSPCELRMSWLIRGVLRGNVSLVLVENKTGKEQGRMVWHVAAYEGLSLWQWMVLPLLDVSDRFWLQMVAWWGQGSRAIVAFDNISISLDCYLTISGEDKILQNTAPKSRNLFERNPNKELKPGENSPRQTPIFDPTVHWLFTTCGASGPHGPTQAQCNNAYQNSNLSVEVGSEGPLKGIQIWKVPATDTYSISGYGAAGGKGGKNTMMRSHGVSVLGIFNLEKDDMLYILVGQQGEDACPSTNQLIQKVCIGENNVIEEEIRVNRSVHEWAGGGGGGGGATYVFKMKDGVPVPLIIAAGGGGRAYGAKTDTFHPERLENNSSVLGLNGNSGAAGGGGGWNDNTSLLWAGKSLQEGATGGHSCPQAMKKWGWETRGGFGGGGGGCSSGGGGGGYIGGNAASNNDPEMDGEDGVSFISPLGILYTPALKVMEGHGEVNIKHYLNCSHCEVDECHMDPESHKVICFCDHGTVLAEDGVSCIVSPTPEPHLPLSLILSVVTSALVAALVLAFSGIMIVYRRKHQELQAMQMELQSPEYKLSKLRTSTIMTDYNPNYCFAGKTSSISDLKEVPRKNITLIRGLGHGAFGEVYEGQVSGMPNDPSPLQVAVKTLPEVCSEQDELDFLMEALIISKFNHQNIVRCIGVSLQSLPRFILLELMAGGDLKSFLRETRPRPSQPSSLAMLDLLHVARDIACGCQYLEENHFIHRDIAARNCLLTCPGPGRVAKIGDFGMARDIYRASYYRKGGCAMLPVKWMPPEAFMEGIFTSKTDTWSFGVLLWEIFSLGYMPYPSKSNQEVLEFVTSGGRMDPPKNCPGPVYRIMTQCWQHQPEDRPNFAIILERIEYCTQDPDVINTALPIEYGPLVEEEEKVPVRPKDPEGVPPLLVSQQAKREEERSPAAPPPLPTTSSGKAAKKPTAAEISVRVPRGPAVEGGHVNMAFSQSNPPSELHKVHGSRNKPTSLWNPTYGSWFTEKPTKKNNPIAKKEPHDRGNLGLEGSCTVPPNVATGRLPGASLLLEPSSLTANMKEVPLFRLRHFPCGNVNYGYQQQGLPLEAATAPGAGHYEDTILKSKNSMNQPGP
T2 sequence (P08581 956-1390 limits assumed): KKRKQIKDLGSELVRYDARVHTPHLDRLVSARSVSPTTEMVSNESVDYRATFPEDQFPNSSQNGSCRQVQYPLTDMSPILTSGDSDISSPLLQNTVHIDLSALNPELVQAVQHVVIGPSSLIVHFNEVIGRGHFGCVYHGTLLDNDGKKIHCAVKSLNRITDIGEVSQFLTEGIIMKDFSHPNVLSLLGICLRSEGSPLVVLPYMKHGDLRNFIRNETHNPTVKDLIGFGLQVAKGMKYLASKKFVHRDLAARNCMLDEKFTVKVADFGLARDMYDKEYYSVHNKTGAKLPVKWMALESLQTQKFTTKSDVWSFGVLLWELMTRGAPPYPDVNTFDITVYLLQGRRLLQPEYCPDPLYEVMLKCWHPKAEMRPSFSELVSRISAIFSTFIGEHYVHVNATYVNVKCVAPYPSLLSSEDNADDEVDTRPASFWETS

Compound: CCN1C(=O)CCC(C)(C)c2cc(Nc3ncc(Cl)c(Nc4ccccc4C(=O)NC)n3)ccc21 [Example 387, 2-[5-Chloro-2-(1-ethyl-5,5-dimethyl-2-oxo-2,3,4,5-tetrahydro-1H-benzo[b]azepin-7-ylamino)-pyrimidin-4-ylamino]-N-methyl-benzamide]
- IC50 [1, 3]: < 100 nM
- IC50 [2, 4]: < 100 nM

Compound: CS(=O)(=O)N[C@@H]1CCCC[C@H]1Nc1nc(Nc2ccc3c(c2)CCC(F)(F)CC3)ncc1Cl [Example 181, N-{(1R,2R)-2-[5-Chloro-2-(7,7-difluoro-6,7,8,9-tetrahydro-5H-benzocyclohepten-2-ylamino)-pyrimidin-4-ylamino]-cyclohexyl}-methanesulfonamide]
- IC50 [1, 3]: < 100 nM
- IC50 [2, 4]: 1000 to 10000 nM

Compound: CNC(=O)c1ccccc1Nc1nc(Nc2ccc3c(c2)C2CCC3CN(CCF)C2)ncc1Cl (centres unmarked) [Example 280, 2-{5-Chloro-2-[10-(2-fluoro-ethyl)-10-aza-tricyclo[6.3.2.0*2,7*]trideca-2,4,6-trien-4-ylamino]-pyrimidin-4-ylamino}-N-methyl-benzamide]
- IC50 [1, 3]: < 100 nM
- IC50 [2, 4]: < 100 nM

Compound: CCN1C(=O)CCC(C)(C)c2cc(Nc3ncc(Cl)c(Nc4ccc(N5CCOCC5)cc4OC)n3)ccc21 [Example 391, 7-[5-Chloro-4-(2-methoxy-4-morpholin-4-yl-phenylamino)-pyrimidin-2-ylamino]-1-ethyl-5,5-dimethyl-1,3,4,5-tetrahydro-benzo[b]azepin-2-one]
- IC50 [1, 3]: < 100 nM
- IC50 [2, 4]: > 10000 nM

Compound: COc1ccccc1Nc1nc(Nc2ccc3c(c2)CCC(NCC(F)(F)F)CC3)ncc1Cl (centres unmarked) [Example 658, 5-Chloro-N*4*-(2-methoxy-phenyl)-N*2*-[7-(2,2,2-trifluoro-ethylamino)-6,7,8,9-tetrahydro-5H-benzocyclohepten-2-yl]-pyrimidine-2,4-diamine]
- IC50 [1, 5]: 100 to 1000 nM
- IC50 [2, 6]: > 10000 nM

Compound: CNC(=O)c1ccccc1Nc1nc(Nc2ccc3c(c2)CCOCC3)ncc1Cl [Example 51, 2-[5-Chloro-2-(5,6,8,9-tetrahydro-7-oxa-benzocyclohepten-2-ylamino)-pyrimidin-4-ylamino]-N-methyl-benzamide]
- IC50 [1, 3]: < 100 nM
- IC50 [2, 4]: < 100 nM

Compound: CNC(=O)c1ccccc1Nc1nc(Nc2ccc3c(c2)CCCNC3=O)ncc1Cl [Example 11, 2-[5-Chloro-2-(1-oxo-2,3,4,5-tetrahydro-1H-benzo[c]azepin-7-ylamino)-pyrimidin-4-ylamino]-N-methyl-benzamide]
- IC50 [1, 3]: < 100 nM
- IC50 [2, 4]: < 100 nM

Compound: CNC(=O)c1cccc(Nc2nc(Nc3ccc4c(c3)C(C)(C)CCC(=O)N4)ncc2Cl)c1 [Example 672, 3-[5-Chloro-2-(5,5-dimethyl-2-oxo-2,3,4,5-tetrahydro-1H-benzo[b]azepin-7-ylamino)-pyrimidin-4-ylamino]-N-methyl-benzamide]
- IC50 [1, 5]: 100 to 1000 nM
- IC50 [2, 6]: 1000 to 10000 nM

Compound: CNC(=O)c1ccccc1Nc1nc(Nc2cc3c(cc2OC)CCN(CC(=O)N(C)C)CC3)ncc1Br [Example 376, 2-[5-Bromo-2-(3-dimethylcarbamoylmethyl-8-methoxy-2,3,4,5-tetrahydro-1H-benzo[d]azepin-7-ylamino)-pyrimidin-4-ylamino]-N-methyl-benzamide]
- IC50 [1, 3]: < 100 nM
- IC50 [2, 4]: 1000 to 10000 nM

Compound: COc1c(Nc2ncc(Cl)c(Nc3ccccc3-n3cccn3)n2)ccc2c1CCC(NCC(F)(F)F)CC2 (centres unmarked) [Example 690, 5-Chloro-N*2*-[1-methoxy-7-(2,2,2-trifluoro-ethylamino)-6,7,8,9-tetrahydro-5H-benzocyclohepten-2-yl]-N*4*-(2-pyrazol-1-yl-phenyl)-pyrimidine-2,4-diamine]
- IC50 [1, 5]: 100 to 1000 nM
- IC50 [2, 6]: > 10000 nM

Compound: CNC(=O)c1ccccc1Nc1nc(Nc2ccc3c(c2)OCCN(C)C3=O)ncc1Cl [Example 514, 2-[5-chloro-2-(4-methyl-5-oxo-2,3,4,5-tetrahydro-benzo[f][1,4]oxazepin-8-ylamino)-pyrimidin-4-ylamino]-N-methyl-benzamide]
- IC50 [1, 5]: < 100 nM
- IC50 [2, 6]: < 100 nM

The remaining lines, values ahead:

- IC50 [1, 5]: < 100 nM
- IC50 [2, 6]: > 10000 nM
Compound: COc1c(Nc2ncc(Cl)c(Nc3ccccc3S(=O)(=O)N3CC[C@@H](O)C3)n2)ccc2c1CCCC(NCCO)C2 (stereo partly drawn) [Example 962, (R)-1-(2-{5-Chloro-2-[6-(2-hydroxy-ethylamino)-1-methoxy-6,7,8,9-tetrahydro-5H-benzocyclohepten-2-ylamino]-pyrimidin-4-ylamino}-benzenesulfonyl)-pyrrolidin-3-ol]

- IC50 [1, 7]: 1000 to 10000 nM
- IC50 [2, 8]: < 100 nM
Compound: CNCc1ccccc1Nc1nc(Nc2ccc3c(c2)CN(C)C(=O)CC3)ncc1Cl [Example 1808, 8-[5-Chloro-4-(2-methylaminomethyl-phenylamino)-pyrimidin-2-ylamino]-2-methyl-1,2,4,5-tetrahydro-benzo[c]azepin-3-one]

- IC50 [1, 5]: < 100 nM
- IC50 [2, 6]: < 100 nM
Compound: CNC(=O)c1ccccc1Nc1nc(Nc2ccc3c(c2)CCCC(=O)N3CCOC)ncc1C(F)(F)F [Example 921, 2-{2-[1-(2-Methoxyethyl)-2-oxo-2,3,4,5-tetrahydro-1H-benzo[b]azepin-7-ylamino]-5-trifluoromethylpyrimidin-4-ylamino}-N-methylbenzamide]

- IC50 [1, 7]: 100 to 1000 nM
- IC50 [2, 8]: 1000 to 10000 nM
Compound: CNC(=O)c1ccc2c(c1Nc1nc(Nc3ccc4c(c3)CCCC(=O)N4C)ncc1Cl)OCO2 [Example 1479, 4-[5-Chloro-2-(1-methyl-2-oxo-2,3,4,5-tetrahydro-1H-benzo[b]azepin-7-ylamino)-pyrimidin-4-ylamino]-benzo[1,3]dioxole-5-carboxylic acid methyl amide]

- IC50 [1, 7]: 100 to 1000 nM
- IC50 [2, 8]: 1000 to 10000 nM
Compound: CN1C(=O)OCCc2cc(Nc3ncc(Cl)c(Nc4cccc5c4OC(F)(F)O5)n3)ccc21 [Example 1768, 2-[5-Chloro-4-(2,2-difluoro-benzo[1,3]dioxol-4-ylamino)-pyrimidin-2-ylamino]-5-methyl-8,9-dihydro-5H-7-oxa-5-aza-benzocyclohepten-6-one]

- IC50 [1, 5]: 100 to 1000 nM
- IC50 [2, 6]: > 10000 nM
Compound: CC1(C)CCCOc2c(Nc3ncc(Cl)c(Nc4ccccc4-n4cccn4)n3)cccc21 [Example 885, 5-Chloro-N*2*-(5,5-dimethyl-2,3,4,5-tetrahydro-benzo[b]oxepin-9-yl)-N*4*-(2-pyrazol-1-yl-phenyl)-pyrimidine-2,4-diamine]

- IC50 [1, 9]: 100 to 1000 nM
- IC50 [2, 10]: 1000 to 10000 nM
Compound: COCCN1CCc2ccc(Nc3ncc(Cl)c(Nc4ccc5[nH]c(C(F)(F)F)nc5c4)n3)cc2CC1 [Example 1015, 5-Chloro-N*2*-[3-(2-methoxy-ethyl)-2,3,4,5-tetrahydro-1H-benzo[d]azepin-7-yl]-N*4*-(2-trifluoromethyl-1H-benzoimidazol-5-yl)-pyrimidine-2,4-diamine]

- IC50 [1, 7]: < 100 nM
- IC50 [2, 8]: 100 to 1000 nM
Compound: CNC(=O)c1ccccc1Nc1nc(Nc2ccc3c(c2)N(CCOC)C(=O)CCC3(C)C)ncc1Cl [Example 1585, 2-{5-Chloro-2-[1-(2-methoxy-ethyl)-5,5-dimethyl-2-oxo-2,3,4,5-tetrahydro-1H-benzo[b]azepin-8-ylamino]-pyrimidin-4-ylamino}-N-methyl-benzamide]

- IC50 [1, 5]: < 100 nM
- IC50 [2, 6]: > 10000 nM
Compound: COc1cc(N2CCOCC2)ccc1Nc1nc(Nc2cccc3c2OCCCC3)ncc1Cl [Example 862, 5-Chloro-N*4*-(2-methoxy-4-morpholin-4-yl-phenyl)-N*2*-(2,3,4,5-tetrahydrobenzo[b]oxepin-9-yl)pyrimidine-2,4-diamine]

- IC50 [1, 5]: < 100 nM
- IC50 [2, 6]: 1000 to 10000 nM
Compound: CCN1CCN(CC)c2cc(Nc3ncc(Cl)c(Nc4cc(Cl)ccc4OC)n3)ccc2C1 [Example 719, 5-Chloro-N*4*(5-chloro-2-methoxy-phenyl-N*2*-(1,4-diethyl-2,3,4,5-tetrahydro-1H-benzo[e][1,4]diazepin-8-yl)-pyrimidine)-2,4-diamine]

- IC50 [1, 9]: 100 to 1000 nM
- IC50 [2, 10]: > 10000 nM
Compound: COc1cc2c(cc1Nc1ncc(Cl)c(NC3(C(=O)OC(C)C)CCCC3)n1)CCN(CC(=O)N(C)C)CC2 [Example 1202, 1-[5-Chloro-2-(3-dimethylcarbamoylmethyl-8-methoxy-2,3,4,5-tetrahydro-1H-benzo[d]azepin-7-ylamino)-pyrimidin-4-ylamino]-cyclopentanecarboxylic acid isopropyl ester]

- IC50 [1, 5]: < 100 nM
- IC50 [2, 6]: 100 to 1000 nM
Compound: COc1cc2c(cc1Nc1ncc(Cl)c(Nc3ccccc3S(=O)(=O)N3CC[C@H](C)C3)n1)CCN(CC(=O)N(C)C)CC2 [Example 856, 2-(7-{5-Chloro-4-[2-((S)-3-methyl-pyrrolidine-1-sulfonyl)-phenylamino]-pyrimidin-2-ylamino}-8-methoxy-1,2,4,5-tetrahydro-benzo[d]azepin-3-yl)-N,N-dimethyl-acetamide]

- IC50 [1, 9]: < 100 nM
- IC50 [2, 10]: 1000 to 10000 nM
Compound: CCNC(=O)c1ccccc1Nc1nc(Nc2cc3c(cc2OC)CCN(CC(=O)NC)CC3)ncc1Cl [Example 1115, 2-[5-Chloro-2-(8-methoxy-3-methylcarbamoylmethyl-2,3,4,5-tetrahydro-1H-benzo[d]azepin-7-ylamino)-pyrimidin-4-ylamino]-N-ethyl-benzamide]

- IC50 [1, 9]: 100 to 1000 nM
- IC50 [2, 10]: < 100 nM
Compound: CN1C(=O)OCCc2cc(Nc3ncc(Cl)c(Nc4c(F)cccc4OC4CCOC4)n3)ccc21 (centres unmarked) [Example 1300, 2-{5-Chloro-4-[2-fluoro-6-(tetrahydro-furan-3-yloxy)-phenylamino]-pyrimidin-2-ylamino}-5-methyl-8,9-dihydro-5H-7-oxa-5-aza-benzocyclohepten-6-one]
